The SangsterLogP compilation

Assay: method code SF, from Hansch, C. & Leo, A. (1987). Log P database [Dataset]. Pomona College Medicinal Chemistry Project.

Row | Compound | logP | also measured
1 | CC(=O)Oc1cccc(Cl)c1 | 2.32 | –
2 | OC(O)C(Cl)(Cl)Cl | 0.99 | –
3 | O=Cc1cccc(Oc2ccccc2)c1 | 3.38 | –
4 | CC1(C)N=C(N)N=C(N)N1c1ccc(Br)cc1 | – | logD (pH 13.0): 1.09
5 | CCOCC1CNc2nc(N)[nH]c(=O)c2N1 (configuration not stated) | -0.68 | –
6 | O=S1(=O)NC(C2CCCCC2)=Nc2ccccc21 | 2.2 | –
7 | O=[N+]([O-])c1ccc(C=Cc2nccn2Cc2ccccc2)o1 | 1.55 | –
8 | c1ccc(SSc2ccccc2)cc1 | 4.41 | –
9 | CC(=O)O[C@@H]1[C@@H](OC(C)=O)[C@H](OC(C)=O)CO[C@H]1NC(=O)N(CCCl)N=O | 1.05 | –
10 | CCC(=O)Nc1ccccc1 | 1.61 | –
11 | Clc1ccc2[nH]c(CCCCCCc3nc4cc(Cl)ccc4[nH]3)nc2c1 | 1.38 | –
12 | CN1CCC(CN2c3ccccc3Sc3ccccc32)C1 (configuration not stated) | – | logD (pH 8.7): 3.87
13 | CC(=O)c1ccc(C#N)cc1 | – | logD (pH 7.0): 1.22
14 | CCCCOC(=O)c1cccnc1 | – | logD (pH 7.0): 2.27
15 | NN1CCCCC1 | – | logD (pH 9.0): -0.28
16 | CO/N=C/CCc1ccccc1 | – | logD (pH 7.4): 2.14
17 | NC(=O)c1nc[nH]c1N=NN(CCO)Cc1ccccc1 | – | logD (pH 4.2): 0.99
18 | CN(C)c1ccc2c(c1)C(=O)OC2(C)C | 2.42 | –
19 | NS(=O)(=O)Nc1ccccc1 | 0.4 | –
20 | COCC(=O)Nc1ccc(Cl)c(Cl)c1 | 2.77 | –
21 | NCc1cccnc1 | – | logD (pH 11.0): -0.1
22 | CC[C@H]1OC(=O)[C@H](C)[C@@H](OC2CC(C)(OC)C(O)C(C)O2)C(C)[C@@H](OC2OC(C)CC(N(C)C)C2O)[C@](C)(O)C[C@@H](C)C(=O)[C@H](C)[C@@H](O)[C@H]1C (some centres not stated) | 3.12 | –
23 | CCOC(=O)NC | 0.34 | –
24 | [N-]=[N+]=Nc1ccccc1 | 2.59 | –

Row | Compound | logP | also measured
25 | O=S1(=O)NC(c2cccs2)=Nc2ccccc21 | 1.68 | –
26 | O=c1[nH]cc(CO)c(=O)[nH]1 | -1.94 | –
27 | CCOP(=S)(OCC)Oc1ccc(SC)c(Cl)c1 | 5.06 | –
28 | COc1ccc2ncccc2c1 | 2.2 | –
29 | C[C@]12CCC(=O)C=C1CC[C@@H]1[C@@H]2[C@@H](O)C[C@@]2(C)[C@H]1CC[C@]2(O)C(=O)CO | 1.61 | –
30 | CCCCCN(CCCCC)/N=C/c1c2c(O)c3c(O)c(C)c4c(c3c1O)C(=O)C(C)(O/C=C\C(OC)C(C)C(OC(C)=O)C(C)C(O)C(C)C(O)C(C)/C=C\C=C(C)C(=O)N2)O4 (configuration not stated) | 3.47 | –
31 | ClCCOCCCl | 1.29 | –
32 | CS(=O)(=O)Nc1ccccc1 | 0.95 | –
33 | O=C(O)c1ccc(C(F)(F)F)cc1 | 3.1 | –
34 | CC1=Nc2c(Br)cc(Cl)cc2S(=O)(=O)N1 | 1.65 | –
35 | CSCCC(=O)N(C)c1ccc(S(=O)(=O)N(C)C)cc1 | 0.99 | –
36 | ClCCCCl | 2 | –
37 | CC1CO1 (configuration not stated) | 0.03 | –
38 | COC(=O)c1cccc(O)c1 | 1.89 | –
39 | CCCC=O | 0.88 | –
40 | CCc1ccc(NC(C)=O)cc1 | 2.11 | –
41 | O=NN(CCCl)C(=O)N[C@@H]1[C@@H](O)[C@H](O)[C@@H](CO)O[C@H]1O | – | logD (pH 7.4): -1.02
42 | c1ccc(CNc2ccccc2)cc1 | 3.13 | –
43 | CCOP(=O)(OCC)OCC | 0.8 | –
44 | CN(C(=O)CC[N+](=O)[O-])c1ccc(S(=O)(=O)N(C)C)cc1 | 0.3 | –
45 | CCOC(=O)C(=Cc1ccccc1F)C(=O)OCC | 3.04 | –
46 | CC(=O)OCC1=C(C(=O)O)N2C(=O)C(NC(=O)CSc3cc(Cl)ccc3Cl)C2SC1 (configuration not stated) | – | logD (pH 3.0): 1.66
47 | O=C(O)CSCc1ccccc1 | 2.1 | –
48 | CC(=O)c1ccc(N2C(N)=NC(N)=NC2(C)C)cc1 | – | logD (pH 13.0): -0.04

Row | Compound | logP | also measured
49 | Oc1c(Br)cc(Br)c(O)c1Br | – | logD (pH 1.4): 4.37
50 | CN(C)/N=N/c1ccccc1C(=O)NCC#N | 1.79 | –
51 | O=NN(Cc1ccccc1)c1ccccc1 | 3.38 | –
52 | O=c1cc(-c2ccc(O)cc2)oc2ccccc12 | 3.2 | –
53 | Nc1ncco1 | -0.18 | –
54 | CCOC(=O)/C(=C/c1c(Cl)cccc1Cl)C(C)=O | 2.86 | –
55 | CC(=O)Nc1ccc(Cl)c(Cl)c1 | 2.96 | –
56 | OC(c1ccccc1)(C(F)(F)F)C(F)(F)F | 3.41 | –
57 | COC(=O)C(C)Oc1ccc(Oc2ccc(Cl)cc2Cl)cc1 (configuration not stated) | 4.8 | –
58 | O=C(Nc1ccccc1)Nc1ccc(Cl)c(Cl)c1 | 4.7 | –
59 | O=C1Cc2ccccc2CCc2ccccc21 | 2.58 | –
60 | CC(=O)Nc1ccccc1C#N | 0.57 | –
61 | Cc1oc2cc(OCC#N)ccc2c(=O)c1C | 1.96 | –
62 | CN(N=Nc1ccc(C(N)=O)cc1)C(C)(C)C | 2.61 | –
63 | OC(O)(C(F)(F)F)C(F)(F)F | 1.46 | –
64 | Clc1ccc2[nH]c(CCCCc3nc4cc(Cl)ccc4[nH]3)nc2c1 | 1.85 | –
65 | NC(=O)/C=C/c1ccccc1 | 1.42 | –
66 | N#CC(C#N)=C(c1ccccc1)c1ccccc1 | 3.55 | –
67 | CN(C)C(=O)COc1ccccc1 | 0.78 | –
68 | O=[N+]([O-])c1ccc(C=Cc2nccs2)o1 | 1.97 | –
69 | O=[N+]([O-])c1ccc(/C=C/c2cccc(CO)n2)o1 | 1.37 | –
70 | C=CC(N)=O | -0.67 | –
71 | Cc1cccc(OC(=O)CNC(=O)c2ccccc2)c1 | 2.72 | –
72 | O=[N+]([O-])c1cccc(I)c1 | 2.94 | –
